{"source": "ChEMBL document CHEMBL4808180", "about": "“Identification of 2,2-Dimethylbutanoic Acid (HST5040), a Clinical Development Candidate for the Treatment of Propionic Acidemia and Methylmalonic Acidemia” (J Med Chem, 2021)", "key": {"[1]": {"test": "Reduction of propionyl-CoA in human hepatocytes derived from propionic acidemia patient at 30 uM pretreated for 30 mins followed by 13C-isoleucine addition and measured after 1 hr by MS/MS analysis relative to control", "format": "functional, Hepatocyte", "parameters": "scale not given: the % may be the effect or the level left", "conditions": "time 90 min, 1.5 h; call rule not given here"}, "[2]": {"test": "Reduction of propionyl-CoA in human hepatocytes derived from methylmalonic acidemia pretreated for 30 mins followed by 13C-isoleucine addition and measured after 1 hr by MS/MS analysis", "format": "functional, cell-based", "conditions": "hepatocyte"}, "[3]": {"test": "Reduction of propionyl carnitine in human hepatocytes derived from propionic acidemia patient pretreated for 30 mins followed by 13C-isoleucine addition and measured after 1 hr by MS/MS analysis", "format": "functional, cell-based", "conditions": "hepatocyte"}, "[4]": {"test": "Reduction of propionyl carnitine in human hepatocytes derived from methylmalonic acidemia patient at 30 uM pretreated for 30 mins followed by 13C-isoleucine addition and measured after 1 hr by MS/MS analysis relative to control", "format": "functional, Hepatocyte", "parameters": "scale not given: the % may be the effect or the level left", "conditions": "time 90 min, 1.5 h"}, "[5]": {"test": "Reduction of acetyl carnitine in human hepatocytes derived from methylmalonic acidemia patient at 30 uM pretreated for 30 mins followed by 13C-isoleucine addition and measured after 1 hr by MS/MS analysis", "format": "functional, Hepatocyte", "parameters": "scale not given: the % may be the effect or the level left", "conditions": "time 90 min, 1.5 h"}, "[6]": {"test": "Reduction of 2-Methylcitric acid in human hepatocytes derived from methylmalonic acidemia patient at 30 uM pretreated for 30 mins followed by 13C-isoleucine addition and measured after 1 hr by MS/MS analysis relative to control", "format": "functional, Hepatocyte", "parameters": "scale not given: the % may be the effect or the level left", "conditions": "time 90 min, 1.5 h"}, "[7]": {"test": "Reduction of acetyl-CoA in human hepatocytes derived from propionic acidemia patient pretreated for 30 mins followed by 13C-isoleucine addition and measured after 1 hr by MS/MS analysis", "format": "functional, cell-based", "conditions": "hepatocyte"}, "[8]": {"test": "Drug metabolism in human hepatocytes assessed as formation of 2,2-dimethylbutanoic acid-CoA pretreated for 30 mins followed by 13C-isoleucine addition and measured after 1 hr by MS/MS analysis relative to control", "format": "ADME, cell-based", "conditions": "Hepatocyte"}, "[9]": {"test": "Dissociation constant, pKa of the compound", "format": "physicochemical"}, "[10]": {"test": "Apparent permeability across apical to basal side in human MDCK2-MDR1", "format": "ADME, Canis lupus familiaris", "conditions": "dog, MDCK-MDR1"}, "[11]": {"test": "Solubility in pH 7-buffered water", "format": "physicochemical"}, "OAT1": {"target": "T1, OAT1 (Homo sapiens, UniProt Q4U2R8)", "T1 sequence (Q4U2R8 whole entry)": "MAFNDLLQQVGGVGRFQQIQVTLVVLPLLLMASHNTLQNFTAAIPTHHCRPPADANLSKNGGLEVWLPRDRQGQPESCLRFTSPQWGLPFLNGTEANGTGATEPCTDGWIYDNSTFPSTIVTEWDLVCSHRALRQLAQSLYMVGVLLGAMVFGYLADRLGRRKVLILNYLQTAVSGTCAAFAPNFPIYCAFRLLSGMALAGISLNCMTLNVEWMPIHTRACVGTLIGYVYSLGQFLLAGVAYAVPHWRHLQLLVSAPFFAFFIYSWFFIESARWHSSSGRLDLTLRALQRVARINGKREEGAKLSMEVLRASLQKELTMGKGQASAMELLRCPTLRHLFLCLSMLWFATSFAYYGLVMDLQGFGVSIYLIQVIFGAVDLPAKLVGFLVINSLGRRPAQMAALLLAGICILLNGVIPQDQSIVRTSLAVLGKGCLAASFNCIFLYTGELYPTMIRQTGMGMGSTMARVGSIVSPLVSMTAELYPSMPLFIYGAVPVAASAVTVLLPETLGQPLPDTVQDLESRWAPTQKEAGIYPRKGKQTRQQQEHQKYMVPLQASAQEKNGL", "test": "Inhibition of human OAT1 assessed as reduction in OAT1-mediated tenofovir transport at 14900 uM relative to control", "conditions": "not told, probe tenofovir"}, "[12]": {"test": "Ratio of drug level in erythrocyte to plasma in human", "format": "ADME", "conditions": "erythrocytes and plasma"}, "[13]": {"test": "Reduction of propionyl-CoA in human hepatocytes derived from methylmalonic acidemia at 30 uM pretreated for 30 mins followed by 13C-isoleucine addition and measured after 1 hr by MS/MS analysis relative to control", "format": "functional, Hepatocyte", "parameters": "scale not given: the % may be the effect or the level left", "conditions": "time 90 min, 1.5 h"}, "[14]": {"test": "Cmax in CD1 mouse at 30 mg/kg, iv", "format": "ADME, organism-based", "parameters": "route intravenous, dose 30 mg/kg", "conditions": "in vivo"}, "[15]": {"test": "Cmax in CD1 mouse at 300 mg/kg, po", "format": "ADME, organism-based", "parameters": "route oral, dose 300 mg/kg", "conditions": "in vivo"}, "[16]": {"test": "Tmax in CD1 mouse at 30 mg/kg, po", "format": "ADME, organism-based", "conditions": "in vivo"}, "[17]": {"test": "Tmax in CD1 mouse at 300 mg/kg, po", "format": "ADME, organism-based", "conditions": "in vivo"}, "[18]": {"test": "Half life in CD1 mouse at 30 mg/kg, po", "format": "ADME, organism-based", "conditions": "in vivo"}, "[19]": {"test": "AUC (0 to infinity) in CD1 mouse at 300 mg/kg, iv", "format": "ADME, organism-based", "parameters": "route intravenous, time infinity, dose 300 mg/kg", "conditions": "in vivo"}, "[20]": {"test": "Oral bioavailability in CD1 mouse at 30 mg/kg", "format": "ADME, organism-based", "conditions": "in vivo"}, "[21]": {"test": "Cmax in Sprague-Dawley rat at 50 mg/kg, po", "format": "ADME, organism-based", "parameters": "route oral, dose 50 mg/kg", "conditions": "in vivo"}, "[22]": {"test": "Cmax in Sprague-Dawley rat at 200 mg/kg, po", "format": "ADME, organism-based", "parameters": "route oral, dose 200 mg/kg", "conditions": "in vivo"}, "[23]": {"test": "Tmax in Sprague-Dawley rat at 50 mg/kg, po", "format": "ADME, organism-based", "conditions": "in vivo"}, "[24]": {"test": "AUC (0 to infinity) in Sprague-Dawley rat at 10 mg/kg, po", "format": "ADME, organism-based", "parameters": "time infinity, route oral, dose 10 mg/kg", "conditions": "in vivo"}, "[25]": {"test": "AUC (0 to infinity) in Sprague-Dawley rat at 50 mg/kg, po", "format": "ADME, organism-based", "parameters": "time infinity, route oral, dose 50 mg/kg", "conditions": "in vivo"}, "[26]": {"test": "Oral bioavailability in Sprague-Dawley rat at 200 mg/kg", "format": "ADME, organism-based", "conditions": "in vivo"}, "[27]": {"test": "Half life in Sprague-Dawley rat plasma at 10 mg/kg, po using radiolabeled compound by quantitative whole-body autoradiography", "format": "ADME, organism-based", "conditions": "in vivo"}, "[28]": {"test": "Drug level in Gottingen minipig blood at 10 mg/kg, po using radiolabeled compound measured after 96 hrs by quantitative whole-body autoradiography", "format": "ADME, organism-based, Sus scrofa domesticus", "conditions": "pig, in vivo, BLD = below limit of detection"}, "[29]": {"test": "Stability in human hepatocytes assessed as unchanged compound at 50 uM measured after 4 hrs", "format": "ADME, cell-based, Hepatocyte", "conditions": "read-out: Stabilty"}, "[30]": {"test": "Drug metabolism in Sprague-Dawley rat urine assessed as HST5040-carnitine metabolite formation at 10 mg/kg administered as single dose by LC/MS analysis", "format": "ADME, organism-based", "conditions": "in vivo"}, "[31]": {"test": "Drug metabolism in Gottingen minipig urine assessed as HST5040-glycine metabolite formation at 10 mg/kg administered as single dose by LC/MS analysis", "format": "ADME, organism-based, Sus scrofa domesticus", "conditions": "pig, in vivo"}, "[32]": {"test": "Drug metabolism in minipig hepatocytes assessed as beta-oxidation by measuring phase1 metabolite formation at 50 uM measured after 4 hrs", "format": "ADME, cell-based, Sus scrofa domesticus, Hepatocyte", "conditions": "pig"}, "[33]": {"test": "Drug metabolism in Sprague-Dawley rat assessed as beta-oxidation by measuring phase1 metabolite formation at 10 mg/kg administered single dose using radiolabeled compound", "format": "ADME, organism-based", "conditions": "in vivo"}, "Cytochrome P450 3A4": {"target": "Cytochrome P450 3A4 (Homo sapiens, UniProt P08684)", "sequence (P08684 whole entry)": "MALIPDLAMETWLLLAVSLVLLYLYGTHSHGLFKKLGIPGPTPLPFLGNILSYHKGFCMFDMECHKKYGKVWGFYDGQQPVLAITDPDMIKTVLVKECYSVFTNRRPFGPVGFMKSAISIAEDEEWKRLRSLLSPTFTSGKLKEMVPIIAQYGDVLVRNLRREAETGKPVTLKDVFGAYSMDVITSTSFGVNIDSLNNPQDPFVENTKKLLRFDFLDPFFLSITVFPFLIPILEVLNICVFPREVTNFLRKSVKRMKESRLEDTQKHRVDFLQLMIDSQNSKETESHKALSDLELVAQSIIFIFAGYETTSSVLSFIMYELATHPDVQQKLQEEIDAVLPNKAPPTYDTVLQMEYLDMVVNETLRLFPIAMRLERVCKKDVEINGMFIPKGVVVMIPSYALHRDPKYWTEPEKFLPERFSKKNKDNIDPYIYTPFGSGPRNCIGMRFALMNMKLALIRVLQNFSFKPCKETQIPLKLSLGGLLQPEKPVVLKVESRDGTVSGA", "test": "Direct inhibition of CYP3A4 in human liver microsomes using testosterone as substrate", "format": "ADME"}, "[34]": {"target": "ATP-dependent translocase ABCB1 (Homo sapiens, UniProt P08183)", "sequence (P08183 whole entry)": "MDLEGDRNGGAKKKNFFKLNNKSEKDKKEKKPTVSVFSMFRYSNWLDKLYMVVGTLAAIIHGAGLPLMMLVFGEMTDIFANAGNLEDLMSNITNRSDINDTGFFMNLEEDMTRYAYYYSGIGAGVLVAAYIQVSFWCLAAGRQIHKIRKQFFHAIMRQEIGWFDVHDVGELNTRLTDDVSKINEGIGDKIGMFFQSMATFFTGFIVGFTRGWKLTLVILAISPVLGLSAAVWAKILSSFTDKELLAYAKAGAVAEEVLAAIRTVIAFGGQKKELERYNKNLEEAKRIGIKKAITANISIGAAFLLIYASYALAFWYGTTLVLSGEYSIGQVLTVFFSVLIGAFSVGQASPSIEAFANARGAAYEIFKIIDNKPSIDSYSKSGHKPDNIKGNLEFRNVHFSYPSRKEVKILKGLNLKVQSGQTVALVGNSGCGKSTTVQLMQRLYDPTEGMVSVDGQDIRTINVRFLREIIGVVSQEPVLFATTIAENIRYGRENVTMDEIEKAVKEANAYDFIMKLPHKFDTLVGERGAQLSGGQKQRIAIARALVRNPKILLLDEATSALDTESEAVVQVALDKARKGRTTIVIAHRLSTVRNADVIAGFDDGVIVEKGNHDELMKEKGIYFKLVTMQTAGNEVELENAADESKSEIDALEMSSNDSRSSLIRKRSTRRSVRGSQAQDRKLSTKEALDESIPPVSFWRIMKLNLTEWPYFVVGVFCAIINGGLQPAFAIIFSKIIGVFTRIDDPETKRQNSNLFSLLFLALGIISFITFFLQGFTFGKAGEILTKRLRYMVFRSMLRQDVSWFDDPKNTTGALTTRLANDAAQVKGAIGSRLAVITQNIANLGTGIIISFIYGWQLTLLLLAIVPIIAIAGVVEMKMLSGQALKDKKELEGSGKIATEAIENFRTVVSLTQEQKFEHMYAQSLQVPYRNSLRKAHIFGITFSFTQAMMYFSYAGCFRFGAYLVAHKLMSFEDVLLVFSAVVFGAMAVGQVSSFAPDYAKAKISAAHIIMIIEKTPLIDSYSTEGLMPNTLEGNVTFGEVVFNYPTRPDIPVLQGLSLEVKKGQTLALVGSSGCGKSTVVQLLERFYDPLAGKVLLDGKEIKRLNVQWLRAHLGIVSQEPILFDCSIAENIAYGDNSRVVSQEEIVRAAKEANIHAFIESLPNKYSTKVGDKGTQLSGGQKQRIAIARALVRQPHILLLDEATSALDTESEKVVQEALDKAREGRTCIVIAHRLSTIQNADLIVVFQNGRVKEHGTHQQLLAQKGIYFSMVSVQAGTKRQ", "test": "Inhibition of human MDR1 assessed as reduction in NMQ transport at 24000 uM relative to control"}, "[35]": {"test": "Induction of toxicity in minipig assessed as increase in number of cells with cytoplasmic vacuoles in renal tubules at >=50 mg/kg/day", "format": "organism-based, Sus scrofa domesticus", "conditions": "pig, in vivo"}, "[36]": {"test": "Induction of toxicity in minipig assessed as increase in serum albumin concentration at 300 mg/kg/day", "format": "organism-based, Sus scrofa domesticus", "conditions": "pig, in vivo"}}}
{"smiles": "CCC(C)(C)C(=O)O", "note": "[DIMEBUTIC ACID]", "values": [{"measurement": "Activity", "setting": "[1]", "value": -78.8, "unit": "%"}, {"measurement": "EC50", "setting": "[2]", "value": 2.1, "unit": "µM"}, {"measurement": "EC50", "setting": "[3]", "value": 2.6, "unit": "µM"}, {"measurement": "Activity", "setting": "[4]", "value": -65.9, "unit": "%"}, {"measurement": "Activity", "setting": "[5]", "value": 44.6, "unit": "%"}, {"measurement": "Activity", "setting": "[6]", "value": -66.7, "unit": "%"}, {"measurement": "EC50", "setting": "[7]", "value": 2.3, "unit": "µM"}, {"measurement": "EC50", "setting": "[8]", "value": 8.3, "unit": "µM"}, {"measurement": "pKa", "setting": "[9]", "value": 4.4}, {"measurement": "Papp A→B", "setting": "[10]", "value": "> 20", "unit": "×10⁻⁶ cm/s"}, {"measurement": "solubility", "setting": "[11]", "value": "> 50", "unit": "mg/mL"}, {"measurement": "inhibition at 14900 µM", "setting": "OAT1", "value": 83.2, "unit": "%"}, {"measurement": "Kp", "setting": "[12]", "value": 0.343}, {"measurement": "Activity", "setting": "[13]", "value": -74.2, "unit": "%"}, {"measurement": "Cmax", "setting": "[14]", "value": 59.4, "unit": "µg/mL"}, {"measurement": "Cmax", "setting": "[15]", "value": 465, "unit": "µg/mL"}, {"measurement": "Tmax", "setting": "[16]", "value": 26.3, "unit": "min"}, {"measurement": "Tmax", "setting": "[17]", "value": 30, "unit": "min"}, {"measurement": "half-life", "setting": "[18]", "value": 35.4, "unit": "min"}, {"measurement": "AUC(0-inf)", "setting": "[19]", "value": 1250, "unit": "µg·h/mL"}, {"measurement": "bioavailability", "setting": "[20]", "value": 53.4, "unit": "%"}, {"measurement": "Cmax", "setting": "[21]", "value": 21.9, "unit": "µg/mL"}, {"measurement": "Cmax", "setting": "[22]", "value": 113, "unit": "µg/mL"}, {"measurement": "Tmax", "setting": "[23]", "value": 20, "unit": "min"}, {"measurement": "AUC(0-inf)", "setting": "[24]", "value": 5.52, "unit": "µg·h/mL"}, {"measurement": "AUC(0-inf)", "setting": "[25]", "value": 33.1, "unit": "µg·h/mL"}, {"measurement": "bioavailability", "setting": "[26]", "value": 126, "unit": "%"}, {"measurement": "t1/2", "setting": "[27]", "value": 144, "unit": "min"}, {"measurement": "Drug uptake", "setting": "[28]", "value": "Bld"}, {"measurement": "remaining at 4 h, 50 µM", "setting": "[29]", "value": 88, "unit": "%"}, {"measurement": "Drug metabolism", "setting": "[30]", "value": "Metabolite_Detected"}, {"measurement": "Drug metabolism", "setting": "[31]", "value": "Metabolite_Detected"}, {"measurement": "Drug metabolism", "setting": "[32]", "value": "Metabolite_Notdetected"}, {"measurement": "Drug metabolism", "setting": "[33]", "value": "Metabolite_Notdetected"}, {"measurement": "IC50", "setting": "Cytochrome P450 3A4", "value": "> 10000", "unit": "µM"}, {"measurement": "inhibition (INH)", "setting": "[34]", "value": "Not Active"}, {"measurement": "Activity", "setting": "[35]", "value": "Toxic"}, {"measurement": "Activity", "setting": "[36]", "value": "Toxic"}]}
